From ChEMBL document CHEMBL1955858, “Synthesis and biological evaluation of novel amprenavir-based P1-substituted bi-aryl derivatives as ultra-potent HIV-1 protease inhibitors” (Bioorg Med Chem Lett, 2012) come the findings set out here.

The structures appear in SMILES notation.

For one data set, the target named is Protease (Human immunodeficiency virus 1, UniProt Q9YQ12). In words: Inhibition of HIV1 protease using Arg-Glu(EDANS)-Ser-Gln-Asn-Tyr-Pro-Ile-Val-Gln-Lys(DABCYL)- Arg as substrate for 20 to 30 mins by FRET analysis.
Chain of Protease (Q9YQ12 whole entry): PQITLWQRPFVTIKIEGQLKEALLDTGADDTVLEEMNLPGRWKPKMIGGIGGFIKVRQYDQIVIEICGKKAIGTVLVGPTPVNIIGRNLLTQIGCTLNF
Data set [1] relates to Human immunodeficiency virus 1. In words: Antiviral activity against HIV1 3B infected in human C8166 cells assessed as inhibition of syncytia formation after 3 days. The data set is classed as functional, organism-based. To be noted: Human immunodeficiency virus 1, 3B, C8166, 72 h.
Data set [2] in a line: Cytostatic activity against human C8166 cells by MTT assay. The format is cell-based.
A short description of data set [3]: Selectivity index, ratio of CC50 for human C8166 cells to EC50 for HIV1 3B. The format is toxicity, cell-based. To be noted: read-out: Ratio CC50/EC50.
Data set [4] deals with Protease (Human immunodeficiency virus 1) (UniProt Q9YQ12). In words: Ratio of amprenavir Ki to compound Ki for HIV1 protease.
Chain of Protease (Human immunodeficiency virus 1) (Q9YQ12 as listed by the source): as the sequence (Q9YQ12 whole entry) above
Data set [5] relates to Human immunodeficiency virus 1. The experiment in a line: Ratio of amprenavir EC50 to compound EC50 for HIV1 3B. The format is functional.

In the case of `COc1ccc(S(=O)(=O)N(CC(C)C)C[C@@H](O)[C@H](Cc2ccc(-c3cccnc3)cc2)NC(=O)O[C@H]2CCOC2)cc1`, the Ki at Protease is 1.6 nM. In addition, the EC50 in data set [1] stood at 3.08 nM. The same molecule returned a CC50 in data set [2] of 210000 nM. The selectivity ratio in data set [3] stood at 68200.

Turning to `COc1ccc(S(=O)(=O)N(CC(C)C)C[C@@H](O)[C@H](Cc2ccc(-c3ccc(C(=O)O)cc3)cc2)NC(=O)O[C@H]2CCOC2)cc1`, at Protease, affinity was put at a Ki of 1.9 nM. For the same molecule, in data set [1], the EC50 was found to be 5.53 nM. For the same molecule, in data set [2], the CC50 was 140000 nM. Besides, in data set [3], the selectivity ratio was 25300.

Molecule `CC(C)CN(C[C@@H](O)[C@H](Cc1ccccc1)NC(=O)O[C@H]1CCOC1)S(=O)(=O)c1ccc(N)cc1` [AMPRENAVIR] gave a Ki on Protease of 0.84 nM. The concentration for a half-maximal effect (EC50) in data set [1] turned out to be 2.93 nM. In addition, the midpoint of cytotoxicity in data set [2], the CC50, lay at 230000 nM. The selectivity ratio in data set [3] was found to be 78500.

The molecule `COc1ccc(S(=O)(=O)N(CC(C)C)C[C@@H](O)[C@H](Cc2ccc(-c3ccncc3)cc2)NC(=O)O[C@H]2CCOC2)cc1` came in with a Ki on Protease of 3.8 nM. Moreover, the EC50 in data set [1] is 2.68 nM. In data set [2], it took 260000 nM to reach half-maximal cytotoxicity (CC50). The selectivity ratio in data set [3] came to 97000.

In turn, `COc1ccc(S(=O)(=O)N(CC(C)C)C[C@@H](O)[C@H](Cc2ccc(-c3ccc(F)cc3)cc2)NC(=O)O[C@H]2CCOC2)cc1` returned a Ki on Protease of 5.8 nM. Moreover, in data set [1], the EC50 turned out to be 3.98 nM. Besides, half-maximal cytotoxicity in data set [2] (CC50) was put at 140000 nM. Also, in data set [3], the selectivity ratio came to 35200.

Regarding `COc1ccc(S(=O)(=O)N(CC(C)C)C[C@@H](O)[C@H](Cc2ccc(-c3ccc(C(C)=O)cc3)cc2)NC(=O)O[C@H]2CCOC2)cc1`, affinity at Protease was put at a Ki of 5.8 nM. The EC50 in data set [1] was found to be 2.32 nM. In data set [2], the CC50 is 210000 nM. The selectivity ratio in data set [3] was 90500.

`COc1ccc(S(=O)(=O)N(CC(C)C)C[C@@H](O)[C@H](Cc2ccc(-c3ccc(Cl)cc3)cc2)NC(=O)O[C@H]2CCOC2)cc1` showed a Ki on Protease of 6.4 nM. The EC50 in data set [1] was determined as 4.29 nM. This molecule gave a CC50 in data set [2] of 230000 nM. Also, the selectivity ratio in data set [3] was found to be 53600.

`CC(C)CN(C[C@@H](O)[C@H](Cc1ccc(-c2cccnc2)cc1)NC(=O)O[C@H]1CCOC1)S(=O)(=O)c1ccc(N)cc1` displayed a Ki at Protease of 0.33 nM. For the same molecule, the EC50 in data set [1] is 0.1 nM. This molecule also yielded a CC50 in data set [2] of 200000 nM. The Ratio Ki in data set [4] turned out to be 2. Further, in data set [3], the selectivity ratio was determined as 2e+06. The “Ratio EC50” value in data set [5] is reported as 30.

`COc1ccc(S(=O)(=O)N(CC(C)C)C[C@@H](O)[C@H](Cc2ccc(-c3ccc(OC)c(C)c3)cc2)NC(=O)O[C@H]2CCOC2)cc1` had a Ki on Protease of 1.8 nM. Besides, the EC50 in data set [1] came out at 3.63 nM. In addition, the CC50 in data set [2] was 170000 nM. For the same molecule, the selectivity ratio in data set [3] came to 46800.

With `COc1ccc(S(=O)(=O)N(CC(C)C)C[C@@H](O)[C@H](Cc2ccc(-c3ccc(SC)cc3)cc2)NC(=O)O[C@H]2CCOC2)cc1`, on Protease, the Ki is 7.4 nM. Besides, in data set [1], the EC50 worked out at 6.89 nM. This molecule also came in with a CC50 in data set [2] of 240000 nM. The selectivity ratio in data set [3] worked out at 34800.

Turning to `COc1ccc(S(=O)(=O)N(CC(C)C)C[C@@H](O)[C@H](Cc2ccc(-c3cccc(O)c3)cc2)NC(=O)O[C@H]2CCOC2)cc1`, affinity on Protease was put at a Ki of 4.3 nM. For the same molecule, in data set [1], the EC50 came to 4.3 nM. Moreover, the CC50 in data set [2] was 41000 nM. For the same molecule, the selectivity ratio in data set [3] turned out to be 9540.

On to `COc1ccc(S(=O)(=O)N(CC(C)C)C[C@@H](O)[C@H](Cc2ccc(-c3cccc(C#N)c3)cc2)NC(=O)O[C@H]2CCOC2)cc1`, for which the Ki at Protease worked out at 8.1 nM. Moreover, in data set [1], the EC50 was 9.2 nM. Further, the CC50 in data set [2] worked out at 320000 nM. For the same molecule, in data set [3], the selectivity ratio came out at 34800.

`COC(=O)c1cccc(-c2ccc(C[C@H](NC(=O)O[C@H]3CCOC3)[C@H](O)CN(CC(C)C)S(=O)(=O)c3ccc(OC)cc3)cc2)c1` yielded a Ki at Protease of 1.6 nM. For the same molecule, in data set [1], the EC50 worked out at 3.46 nM. In data set [2], this molecule returned a CC50 of 190000 nM. For the same molecule, the selectivity ratio in data set [3] came out at 54900.

Regarding `COc1ccc(S(=O)(=O)N(CC(C)C)C[C@@H](O)[C@H](Cc2ccc(-c3ccsc3)cc2)NC(=O)O[C@H]2CCOC2)cc1`, the Ki on Protease was 3.5 nM. For the same molecule, the EC50 in data set [1] was found to be 4.48 nM. This molecule yielded a 50% cytotoxic concentration (CC50) in data set [2] of 160000 nM. The selectivity ratio in data set [3] turned out to be 35700.

At Protease, `CC(C)CN(C[C@@H](O)[C@H](Cc1ccc(-c2ccccc2)cc1)NC(=O)O[C@H]1CCOC1)S(=O)(=O)c1ccc(N)cc1` displayed a Ki of 1.98 nM. The EC50 in data set [1] is 2.25 nM. The same molecule displayed a CC50 in data set [2] of 32000 nM. For the same molecule, the selectivity ratio in data set [3] was 14200.

As for `COc1ccc(S(=O)(=O)N(CC(C)C)C[C@@H](O)[C@H](Cc2ccc(-c3ccc(OC(F)(F)F)cc3)cc2)NC(=O)O[C@H]2CCOC2)cc1`, the Ki at Protease amounted to 5.2 nM. Further, in data set [1], the EC50 was 6.04 nM. Further, the CC50 in data set [2] was 170000 nM. Moreover, the selectivity ratio in data set [3] amounted to 28100.

`CC(C)CN(C[C@@H](O)[C@H](Cc1ccc(-c2ccncc2)cc1)NC(=O)O[C@H]1CCOC1)S(=O)(=O)c1ccc(N)cc1`: affinity at Protease was put at a Ki of 0.086 nM. In addition, the EC50 in data set [1] worked out at 0.1 nM. The same molecule returned a CC50 in data set [2] of 260000 nM. Further, in data set [3], the selectivity ratio turned out to be 2.6e+06. Moreover, the “Ratio EC50” value in data set [5] came to 30.
